Reference: PMC8963254, “Effects of Lysine N-ζ-Methylation in Ultrashort Tetrabasic Lipopeptides (UTBLPs) on the Potentiation of Rifampicin, Novobiocin, and Niclosamide in Gram-Negative Bacteria” (Antibiotics, 2022)
Where two headings read alike, the source gives them in different places.

Tests used:
[1] = test system: E. coli 94393; test: microbe, parasite or virus in culture; assay type: cell-based, Escherichia coli; conditions: 94393, 18 h
Method in brief: (§1)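 Turbidity at 590 nm defined growth, from which the MIC was taken. Cultures at a final density of 5 × 10^5 CFU/mL were exposed to a range of compound levels at 37 °C for 18 h in a CLSI-based microdilution format.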

[2] = test system: E. coli 94474; test: microbe, parasite or virus in culture; assay type: cell-based, Escherichia coli; conditions: 94474, 18 h
Method in brief: as §1

[3] = test system: P. aeruginosa PAO1; assay type: cell-based, Pseudomonas aeruginosa; conditions: for MICUTBLP: UTBLP alone
Description: (§2) The synergy of the UTBLPs with various antibiotics was assessed using checkerboard assay as previously described. Briefly, the combination of antibiotic and OMP at varying concentrations were incubated with bacterial inoculum (5 × 10^5 CFU/mL final concentration) at 37 °C for 18 h. Growth in the form of turbidity was confirmed using an EMax Plus microplate reader (Molecular Devices, Union City, CA, USA) at 590 nm. Fractional inhibitory concentration index (FICI) was used to evaluate the interaction between the antibiotic and the OMP. FICI is the sum of the FIC of the antibiotic and the FIC of the OMP. The FIC value is calculated by dividing the MIC of the agents in combination by the MIC of the agent alone. FICI ≤ 0.5 is synergistic, 0.5 < x ≤ 4 is additive, and >4 is antagonistic.

[4] = test system: P. aeruginosa PA259-96196; assay type: cell-based, Pseudomonas aeruginosa; conditions: for MICUTBLP: UTBLP alone
Description: as §2

[5] = test system: P. aeruginosa PA262-101856; assay type: cell-based, Pseudomonas aeruginosa; conditions: for MICUTBLP: UTBLP alone
Description: as §2

[6] = test system: E. faecium ATCC 27270; assay type: cell-based, Enterococcus faecium
Description: as §2

[7] = test system: E. coli 94393; assay type: cell-based, Escherichia coli; conditions: for MICUTBLP: UTBLP alone
Description: as §2

[8] = test system: E. coli 94474; assay type: cell-based, Escherichia coli; conditions: for MICUTBLP: UTBLP alone
Description: as §2

[9] = test system: E. coli ATCC 25922; assay type: cell-based, Escherichia coli; conditions: for MICUTBLP: UTBLP alone
Description: as §2

[10] = test system: S. aureus ATCC 29213; assay type: cell-based, Staphylococcus aureus; conditions: ATCC 29213, 18 h
Description: (§3) The in vitro antibacterial activity of the UTBLPs was assessed against wild-type and clinically isolated bacterial strains. To obtain the MIC of the compounds, the microbroth dilution susceptibility assay was performed according to the Clinical and Laboratory Standards Institute (CLSI, Wayne, PA, USA) guidelines and as previously described. Briefly, the compounds at varying concentrations were incubated with bacterial inoculum (5 × 10^5 CFU/mL final concentration) at 37 °C for 18 h. Growth in the form of turbidity was confirmed using an EMax Plus microplate reader (Molecular Devices, San Jose, CA, USA) at 590 nm.

[11] = test system: MRSA ATCC 33592; assay type: cell-based, Staphylococcus aureus; conditions: ATCC 33592, 18 h
Description: as §3

[12] = test system: E. faecalis ATCC 29212; assay type: cell-based, Enterococcus faecalis; conditions: ATCC 29212, 18 h
Description: as §3

[13] = test system: P. aeruginosa PA259-96196; test: microbe, parasite or virus in culture; assay type: cell-based, Pseudomonas aeruginosa; conditions: PA259-96196, 18 h
Method in brief: as §1

[14] = test system: P. aeruginosa PA262-101856; test: microbe, parasite or virus in culture; assay type: cell-based, Pseudomonas aeruginosa; conditions: PA262-101856, 18 h
Method in brief: as §1

[15] = UTBLP in combination with chloramphenicol
[16] = UTBLP in combination with niclosamide
[17] = UTBLP in combination with novobiocin
[18] = UTBLP in combination with rifampicin
[19] = chloramphenicol in combination with the UTBLP
[20] = niclosamide in combination with the UTBLP
[21] = novobiocin in combination with the UTBLP
[22] = rifampicin in combination with the UTBLP

MIC [1]: > 128 µg/mL
MIC [2]: > 128 µg/mL
MICUTBLP ([3]; plate with chloramphenicol): > 128 µg/mL
MICUTBLP ([3]; plate with niclosamide): > 128 µg/mL
MICUTBLP ([3]; plate with novobiocin): > 128 µg/mL
MICUTBLP ([3]; plate with rifampicin): > 128 µg/mL
MICUTBLP [MICcombo] [3, 15]: 8 µg/mL
MICUTBLP [MICcombo] [3, 16]: 0.25 µg/mL
MICUTBLP [MICcombo] [3, 17]: 16 µg/mL
MICUTBLP [MICcombo] [3, 18]: 0.25 µg/mL
MICantibiotic [MICcombo] [3, 19]: 8 µg/mL
MICantibiotic [MICcombo] [3, 20]: 1024 µg/mL
MICantibiotic [MICcombo] [3, 21]: 512 µg/mL
MICantibiotic [MICcombo] [3, 22]: 16 µg/mL
MICUTBLP ([4]; plate with novobiocin): > 128 µg/mL
MICUTBLP ([4]; plate with rifampicin): > 128 µg/mL
MICUTBLP [MICcombo] [4, 17]: 0.25 µg/mL
MICUTBLP [MICcombo] [4, 18]: 16 µg/mL
MICantibiotic [MICcombo] [4, 21]: 2048 µg/mL
MICantibiotic [MICcombo] [4, 22]: 16 µg/mL
MICUTBLP ([5]; plate with novobiocin): > 128 µg/mL
MICUTBLP ([5]; plate with rifampicin): > 128 µg/mL
MICUTBLP [MICcombo] [5, 17]: 8 µg/mL
MICUTBLP [MICcombo] [5, 18]: 0.25 µg/mL
MICantibiotic [MICcombo] [5, 21]: 1024 µg/mL
MICantibiotic [MICcombo] [5, 22]: 512 µg/mL
MICUTBLP ([6]; UTBLP alone, plate with chloramphenicol): > 128 µg/mL
MICUTBLP [MICcombo] [6, 15]: 0.25 µg/mL
MICchloramphenicol [MICcombo] [6, 19]: 8 µg/mL
MICUTBLP ([7]; plate with novobiocin): > 128 µg/mL
MICUTBLP ([7]; plate with rifampicin): > 128 µg/mL
MICUTBLP [MICcombo] [7, 17]: 16 µg/mL
MICUTBLP [MICcombo] [7, 18]: 16 µg/mL
MICantibiotic [MICcombo] [7, 21]: 8 µg/mL
MICantibiotic [MICcombo] [7, 22]: 1 µg/mL
MICUTBLP ([8]; plate with novobiocin): > 128 µg/mL
MICUTBLP ([8]; plate with rifampicin): > 128 µg/mL
MICUTBLP [MICcombo] [8, 17]: 16 µg/mL
MICUTBLP [MICcombo] [8, 18]: 16 µg/mL
MICantibiotic [MICcombo] [8, 21]: 32 µg/mL
MICantibiotic [MICcombo] [8, 22]: 2 µg/mL
MICUTBLP ([9]; plate with chloramphenicol): > 128 µg/mL
MICUTBLP ([9]; plate with niclosamide): > 128 µg/mL
MICUTBLP ([9]; plate with novobiocin): > 128 µg/mL
MICUTBLP ([9]; plate with rifampicin): > 128 µg/mL
MICUTBLP [MICcombo] [9, 15]: 0.5 µg/mL
MICUTBLP [MICcombo] [9, 16]: 16 µg/mL
MICUTBLP [MICcombo] [9, 17]: 16 µg/mL
MICUTBLP [MICcombo] [9, 18]: 16 µg/mL
MICantibiotic [MICcombo] [9, 19]: 2 µg/mL
MICantibiotic [MICcombo] [9, 20]: 8 µg/mL
MICantibiotic [MICcombo] [9, 21]: 4 µg/mL
MICantibiotic [MICcombo] [9, 22]: 1 µg/mL
MIC [10]: >128 µg/mL
MIC [11]: >128 µg/mL
MIC [12]: >128 µg/mL
MIC [13]: > 128 µg/mL
MIC [14]: > 128 µg/mL
Compound: CCCCCCCC(=O)N[C@@H](CCCCN(C)C)C(=O)NCCCN(CCCNC(=O)[C@H](CCCCN(C)C)NC(=O)CCCCCCC)CC(=O)N[C@@H](CCCCN(C)C)C(N)=O [UTBLP 3]
Interpretation ([3]; UTBLP + chloramphenicol): Additive (0.5 < x ≤ 4 is additive)
Interpretation ([3]; UTBLP + niclosamide): Additive (0.5 < x ≤ 4 is additive)
Interpretation ([3]; UTBLP + novobiocin): Additive (0.5 < x ≤ 4 is additive)
Interpretation ([3]; UTBLP + rifampicin): Additive (0.5 < x ≤ 4 is additive)
Interpretation ([4]; UTBLP + novobiocin): Additive (0.5 < x ≤ 4 is additive)
Interpretation ([4]; UTBLP + rifampicin): Additive (0.5 < x ≤ 4 is additive)
Interpretation ([5]; UTBLP + novobiocin): Additive (0.5 < x ≤ 4 is additive)
Interpretation ([5]; UTBLP + rifampicin): Additive (0.5 < x ≤ 4 is additive)
Interpretation ([6]; UTBLP + chloramphenicol): Additive (0.5 < x ≤ 4 is additive)
Interpretation ([7]; UTBLP + novobiocin): Synergy (FICI ≤ 0.5 is synergistic)
Interpretation ([7]; UTBLP + rifampicin): Synergy (FICI ≤ 0.5 is synergistic)
Interpretation ([8]; UTBLP + novobiocin): Synergy (FICI ≤ 0.5 is synergistic)
Interpretation ([8]; UTBLP + rifampicin): Additive (0.5 < x ≤ 4 is additive)
Interpretation ([9]; UTBLP + chloramphenicol): Additive (0.5 < x ≤ 4 is additive)
Interpretation ([9]; UTBLP + niclosamide): Synergy (FICI ≤ 0.5 is synergistic)
Interpretation ([9]; UTBLP + novobiocin): Synergy (FICI ≤ 0.5 is synergistic)
Interpretation ([9]; UTBLP + rifampicin): Synergy (FICI ≤ 0.5 is synergistic)
